Laboratory results as given in paper PMC9655037, “Alternation of Organ-Specific Exposure in LPS-Induced Pneumonia Mice after the Inhalation of Tetrandrine Is Governed by Metabolizing Enzyme Suppression and Lysosomal Trapping” (International Journal of Molecular Sciences, 2022).

Assay: Tissue distribution of TET after a single i.t. administration in normal and LPS-treated mice
Conditions: BALB/c, mouse, 15 mg/kg, 15 mg/kg i.t.; for Kp: other: intratracheal (i.t.), Kp (AUC in tissue divided by AUC in blood); for AUC(0-inf) / Cmax / MRT / Tmax / half-life / AUC(0-t): inhaled or intranasal
Method: The different tissue distribution characteristics of TET in normal and pneumonia model mice via i.t. delivery were investigated. Thirty BALB/c mice were randomly divided into ten groups (n = 3 for each group). Five groups of mice were intratracheally injected with 15 mg/kg TET (dissolved in 22.5 mg/mL aspartic acid solution) as control groups, and the other five groups received i.t. administration of 15 mg/kg TET 6 h after i.t. injection of 50 μL LPS (5 mg/mL) as model groups. One control group and one model group were sacrificed simultaneously at the set time points of 2, 4, 8, 24, and 144 h after the administration of TET. After a cardiac puncture to obtain blood samples, tissue samples including heart, liver, spleen, lung, kidney, stomach, intestine, and brain were immediately harvested and all the tissues were thoroughly rinsed in ice physiological saline. All the tissue samples were weighed and stored with blood samples at −40 °C for LC-MS/MS analysis.
Pharmacokinetic parameters including t1/2, AUC(0-t), AUC(0-∞), and MRT were calculated using WinNonlin 7.0 (Pharsight, CA) by the non-compartmental model. Initial plasma concentration post i.v. (C0-i.v.) was extrapolated from the first three points of the logarithmic plasma concentration. The area under the blood concentration–time curve from t = 0 to infinity (AUCinf) was estimated using the linear trapezoidal rule. Blood clearance (CL) was calculated as the i.v. dose divided by AUCinf. Apparent steady-state distribution volume (Vss) was determined by the clearance multiplied by mean residence time. The distribution volume in the elimination phase (Vz) was determined by the clearance divided by the first-order rate constant of the terminal elimination phase (λz). The tissue partition ratio (Kp) of each tissue was calculated as Equation (1). (1) Kp=AUC(0−∞,tissue)/AUC(0−∞,plasma)

## COc1ccc2cc1Oc1ccc(cc1)C[C@H]1c3cc(c(OC)cc3CCN1C)Oc1c(OC)c(OC)cc3c1[C@H](C2)N(C)CC3 [TET, Tetrandrine]
Adipose / blood, LPS-treated mice, adipose
  Kp: 2.6
Adipose / blood, normal mice, adipose
  Kp: 2.4
adipose, LPS-treated mice
  AUC(0-inf): 816 ± 429 µg·h/mL
  Cmax: 5920 ± 1410 ng/mL
  MRT: 102 ± 57.9 h
  Tmax: 18.7 ± 9.24 h
adipose, normal mice
  AUC(0-inf): 501 ± 88.3 µg·h/mL
  Cmax: 7380 ± 1790 ng/mL
  MRT: 67.7 ± 37.1 h
  Tmax: 5.33 ± 2.31 h
adipose, t1/2, LPS-treated mice
  half-life: 75.2 ± 35.2 h
adipose, t1/2, normal mice
  half-life: 54 ± 21.5 h
blood, LPS-treated mice
  AUC(0-inf): 326 ± 12.9 µg·h/mL
  Cmax: 1940 ± 225 ng/mL
  MRT: 133 ± 26.1 h
  Tmax: 24 h
blood, normal mice
  AUC(0-inf): 249 ± 16.4 µg·h/mL
  Cmax: 2670 ± 50 ng/mL
  MRT: 111 ± 23.1 h
  Tmax: 3.33 ± 1.15 h
blood, t1/2, LPS-treated mice
  half-life: 95.5 ± 17.6 h
blood, t1/2, normal mice
  half-life: 83.2 ± 15.4 h
blood, LPS-treated mice, blood
  Kp: 1
blood, normal mice, blood
  Kp: 1
Brain / blood, LPS-treated mice, brain
  Kp: 0.6
Brain / blood, normal mice, brain
  Kp: 1
brain, LPS-treated mice
  AUC(0-inf): 179 ± 38.4 µg·h/mL
  Cmax: 6430 ± 3790 ng/mL
  MRT: 112 ± 35.4 h
  Tmax: 5.33 ± 2.31 h
brain, normal mice
  AUC(0-inf): 190 ± 51.4 µg·h/mL
  Cmax: 10400 ± 9530 ng/mL
  MRT: 56.8 ± 26.5 h
  Tmax: 2 h
brain, t1/2, LPS-treated mice
  half-life: 92.6 ± 27.2 h
brain, t1/2, normal mice
  half-life: 51.6 ± 17.2 h
Heart / blood, LPS-treated mice, heart
  Kp: 4.3
Heart / blood, normal mice, heart
  Kp: 5.1
heart, LPS-treated mice
  AUC(0-t): 940 ± 381 µg·h/mL
  AUC(0-inf): 4090 ± 3400 µg·h/mL
  Cmax: 10800 ± 4010 ng/mL
  MRT: 643 ± 376 h
  Tmax: 4 h
heart, normal mice
  AUC(0-t): 880 ± 22.2 µg·h/mL
  AUC(0-inf): 1410 ± 21.5 µg·h/mL
  Cmax: 14200 ± 3160 ng/mL
  MRT: 137 ± 0.09 h
  Tmax: 2.67 ± 1.15 h
heart, t1/2, LPS-treated mice
  half-life: 449 ± 259 h
heart, t1/2, normal mice
  half-life: 96.8 ± 6.46 h
In vivo, LPS-treated mice, adipose
  AUC(0-t): 566 ± 163 µg·h/mL
In vivo, LPS-treated mice, blood
  AUC(0-t): 219 ± 17.7 µg·h/mL
In vivo, LPS-treated mice, brain
  AUC(0-t): 129 ± 46.2 µg·h/mL
In vivo, LPS-treated mice, kidney
  AUC(0-t): 7940 ± 1170 µg·h/mL
In vivo, LPS-treated mice, liver
  AUC(0-t): 5890 ± 178 µg·h/mL
In vivo, LPS-treated mice, muscle
  AUC(0-t): 483 ± 89.5 µg·h/mL
In vivo, LPS-treated mice, spleen
  AUC(0-t): 9420 ± 942 µg·h/mL
In vivo, normal mice, adipose
  AUC(0-t): 421 ± 94.4 µg·h/mL
In vivo, normal mice, blood
  AUC(0-t): 175 ± 12.3 µg·h/mL
In vivo, normal mice, brain
  AUC(0-t): 168 ± 60.6 µg·h/mL
In vivo, normal mice, intestine
  AUC(0-t): 1460 ± 134 µg·h/mL
In vivo, normal mice, kidney
  AUC(0-t): 6510 ± 691 µg·h/mL
In vivo, normal mice, liver
  AUC(0-t): 4860 ± 334 µg·h/mL
In vivo, normal mice, lung
  AUC(0-t): 4310 ± 1000 µg·h/mL
In vivo, normal mice, muscle
  AUC(0-t): 359 ± 79.8 µg·h/mL
In vivo, normal mice, spleen
  AUC(0-t): 7940 ± 665 µg·h/mL
In vivo, normal mice, stomach
  AUC(0-t): 929 ± 163 µg·h/mL
Intestine / blood, normal mice, intestine
  Kp: 8.3
intestine, LPS-treated mice
  AUC(0-t): 2390 ± 196 µg·h/mL
  AUC(0-inf): 2590 ± 271 µg·h/mL
  Cmax: 76500 ± 10900 ng/mL
  MRT: 42.4 ± 6.38 h
  Tmax: 2 h
intestine, normal mice
  AUC(0-inf): 1630 ± 130 µg·h/mL
  Cmax: 46700 ± 25900 ng/mL
  MRT: 50.5 ± 2.31 h
  Tmax: 4 h
intestine, t1/2, LPS-treated mice
  half-life: 41.7 ± 4.93 h
intestine, t1/2, normal mice
  half-life: 44.7 ± 1.94 h
intestine, LPS-treated mice, intestine
  Kp: 11 ± 1.35
kidney, LPS-treated mice
  AUC(0-inf): 11000 µg·h/mL
